Where two headings read alike, the source gives them in different places.
Assays:
MRP5 [1] = settings: reducing expression of endogenous MRP5; drug and, for 5-fluorouracil, its metabolites; ref [24],[25]; cited from earlier work
Text: Patients with high hMRP5 levels tend to have a worse survival rate than those with low expression[20]–[22]. Further, overexpression of hMRP5 is a strong predictor of poor outcomes in cancer patient cohorts[19],[22],[23].

hMRP5 = test system: hMRP5; set-up: method as in 2 sources, ref [15]–[18] = [15]; PMID 28277541; doi:10.1038/cddis.2017.53; 15. Hou Y The FOXM1-ABCC5 axis contributes to paclitaxel resistance in nasopharyngeal carcinoma cells Cell Death Dis. 2017 8 e2659 10.1038/cddis.2017.53 28277541 PMC5386553 || [16]; PMID 26975227; doi:10.1038/tpj.2016.17; 16. Lal S Pharmacogenetics of ABCB5, ABCC5 and RLIP76 and doxorubicin pharmacokinetics in Asian breast cancer patients Pharmacogenomics J. 2017 17 337 343 10.1038/tpj.2016.17 26975227 || [17]; PMID 15897250; doi:10.1158/1535-7163.MCT-04-0291; 17. Pratt S The multidrug resistance protein 5 (ABCC5) confers resistance to 5-fluorouracil and transports its monophosphorylated metabolites Mol. Cancer Ther. 2005 4 855 863 10.1158/1535-7163.MCT-04- || [18]; PMID 10840050; doi:10.1073/pnas.120159197; 18. Wijnholds J Multidrug-resistance protein 5 is a multispecific organic anion transporter able to transport nucleotide analogs Proc. Nat. Acad. Sci. USA 2000 97 7476 7481 10.1073/pnas.120159197 1084 ||| ref [18] = [18]; PMID 10840050; doi:10.1073/pnas.120159197; 18. Wijnholds J Multidrug-resistance protein 5 is a multispecific organic anion transporter able to transport nucleotide analogs Proc. Nat. Acad. Sci. USA 2000 97 7476 7481 10.1073/pnas.120159197 1084; settings: cited from earlier work; for efflux by hMRP5 / contribution to drug resistance, in words: anticancer drugs, ref [15]–[18]
GFP-hMRP5 = assay: Doxorubicin transport assay in Xenopus laevis oocytes; format: cell-based, human; settings: no peptide, 200 μM doxorubicin, 180 min, Kulori buffer pH 7.4, final 50 μl extract, LC-MS, *P = 0.0190 blank vs GFP-hMRP5
Experimental: The transport assay was essentially done and modified as described. In brief, the cRNAs of C-terminal GFP-tagged hMRP5 and C-terminal mcherry-tagged M5PI were prepared from the linearized pcs2CAG vector DNA templates using the mMESSAGE mMACHINE T7 transcription system (Thermo Scientific, AM1344). Xenopus oocytes were injected with approximately 30 nl of cRNA (GFP-tagged hMRP5 and mcherry-tagged M5PI have the equal quantity 30 ng) or water after maintained in ND96 solution (96 mM NaCl, 2 mM KCl, 1 mM MgCl2, 1.8 mM CaCl2, 5 mM HEPES, pH 7.4) overnight. After 3 days of culture, the GFP and mcherry fluorescence of oocytes was detected using Nikon Confocal A1R, and oocytes showing similar fluorescence intensity were selected for assay. Then, oocytes were pre-incubated in Kulori buffer (90 mM NaCl, 1 mM KCl, 1 mM MgCl2, 5 mM HEPES, pH 7.4) for 5 min before being transferred to 1 ml Kulori buffer containing 200 μM doxorubicin for 180 min. The assay was stopped by removing the buffer and then washed with Kulori buffer at least 3 times and transferred into 1.5 ml tubes (3 oocytes per tube). Excess washing buffer was removed from the tube, and then 50 μl 50% methanol was added to the tube for oocyte homogenization by pipetting. The homogenized samples were centrifuged at 10,000 × g for 10 min at 4 °C, and the supernatants were transferred into new tubes and incubated at −20 °C until further analysis. The samples were acquired with a Q Exactive mass spectrometer coupled with UltiMate 3000 liquid chromatography system (Thermo scientific, CA, USA) after centrifugation at 20,000 × g for 15 min at 4 °C. A Hypersil GOLDTM C18 column (2.1 ×100 mm, 1.9 μm, Thermo Scientific) was used at a flow rate of 0.3 ml min^−1 for separation. Mobile phase A was 0.1% formic acid, while mobile phase B was acetonitrile modified with 0.1% formic acid. The mass spectrometer was operated in positive mode with a spray voltage of 3.5 kV. Full scan mass spectrometry data were recorded from the m/z range of 80–800. A standard dilution curve for quantification of doxorubicin was done. Statistical analysis of the transport assay results was performed using GraphPad Prism. Source data is provided as Source Data 6. The mass spectrometry data is provided as Supplementary Data 3.

hMRP5-Δ1-94 = molecular target: T1, hMRP5-Δ1-94 (Homo sapiens, UniProt O15440); assay: MST binding assay, hMRP5-Δ1-94; settings: for binding affinity to hMRP5, in words: MST, digitonin-purified hMRP5-Δ1-94, 15 min at room temperature
T1 construct: The codon-optimized full-length human ABCC5 gene encoding the MRP5 protein (UniProt ID: O15440); 8xHis (C); 2xstrep (C); made in house; host or cells: HEK293F
Experimental: We monitored the binding of different peptides to digitonin-purified hMRP5-Δ1-94-8xHis by MST assay (Monolith NT). HEPES buffer was used to replace Tris buffer during protein purification in the MST assay. The purified protein was mixed with RED-tris-NTA 2nd Generation dye (NanoTemper, MO-L018). Next, serially diluted peptides were mixed with the labeled protein. The mixtures were incubated for 15 min at room temperature, then the capillaries were loaded and the samples were assessed at 3% LED/excitation power and medium MST power. All peptides used in this study were synthesized in GL Biochem (Shanghai). The peptide sequence is provided as Source Data 5. The MST data were analyzed with MO.Affinity Analysis software.

MRP5 [2] = test system: MRP5; set-up: method as in PMID 16337112, PMID 15006554, PMID 10893247; settings: ref [25],[29],[30]; cited from earlier work
hMRP4 = molecular target: T2, hMRP4 (Homo sapiens, UniProt O15439); assay: MST binding assay, hMRP4
T2 sequence (O15439 1-1325): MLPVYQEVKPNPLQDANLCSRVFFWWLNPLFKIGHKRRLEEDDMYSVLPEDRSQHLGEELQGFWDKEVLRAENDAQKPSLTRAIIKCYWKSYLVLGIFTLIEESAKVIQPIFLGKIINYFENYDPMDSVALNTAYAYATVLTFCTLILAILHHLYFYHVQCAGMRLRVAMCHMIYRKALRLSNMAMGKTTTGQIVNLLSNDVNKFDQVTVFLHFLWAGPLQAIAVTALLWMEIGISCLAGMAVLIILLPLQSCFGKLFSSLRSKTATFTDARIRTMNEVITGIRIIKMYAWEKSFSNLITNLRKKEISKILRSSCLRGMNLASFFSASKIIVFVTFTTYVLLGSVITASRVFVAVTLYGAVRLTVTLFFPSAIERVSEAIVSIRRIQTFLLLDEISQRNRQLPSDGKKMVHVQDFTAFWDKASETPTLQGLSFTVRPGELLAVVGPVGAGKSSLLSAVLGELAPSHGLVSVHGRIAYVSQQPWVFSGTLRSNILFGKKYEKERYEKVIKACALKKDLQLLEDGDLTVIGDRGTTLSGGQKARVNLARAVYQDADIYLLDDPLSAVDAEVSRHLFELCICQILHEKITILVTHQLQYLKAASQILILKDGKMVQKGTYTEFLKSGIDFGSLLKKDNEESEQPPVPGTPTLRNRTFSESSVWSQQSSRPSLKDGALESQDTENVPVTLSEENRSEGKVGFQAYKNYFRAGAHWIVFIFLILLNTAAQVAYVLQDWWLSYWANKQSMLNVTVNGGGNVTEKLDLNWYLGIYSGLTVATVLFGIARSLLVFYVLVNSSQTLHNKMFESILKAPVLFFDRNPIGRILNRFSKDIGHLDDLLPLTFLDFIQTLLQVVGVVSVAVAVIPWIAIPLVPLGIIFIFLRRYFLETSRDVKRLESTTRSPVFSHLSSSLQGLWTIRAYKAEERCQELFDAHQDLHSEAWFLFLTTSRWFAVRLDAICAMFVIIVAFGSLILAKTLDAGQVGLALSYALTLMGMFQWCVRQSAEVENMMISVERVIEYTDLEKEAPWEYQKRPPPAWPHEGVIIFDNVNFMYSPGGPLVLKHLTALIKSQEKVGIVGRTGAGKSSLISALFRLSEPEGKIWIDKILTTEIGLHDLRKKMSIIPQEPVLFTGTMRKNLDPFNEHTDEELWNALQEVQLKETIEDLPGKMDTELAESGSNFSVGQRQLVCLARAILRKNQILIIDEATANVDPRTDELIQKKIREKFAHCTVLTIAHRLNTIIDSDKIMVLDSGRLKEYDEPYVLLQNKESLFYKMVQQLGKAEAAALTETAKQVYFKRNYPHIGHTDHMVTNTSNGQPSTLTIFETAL

T1 sequence (O15440 95-1437 limits assumed, stated change not applied): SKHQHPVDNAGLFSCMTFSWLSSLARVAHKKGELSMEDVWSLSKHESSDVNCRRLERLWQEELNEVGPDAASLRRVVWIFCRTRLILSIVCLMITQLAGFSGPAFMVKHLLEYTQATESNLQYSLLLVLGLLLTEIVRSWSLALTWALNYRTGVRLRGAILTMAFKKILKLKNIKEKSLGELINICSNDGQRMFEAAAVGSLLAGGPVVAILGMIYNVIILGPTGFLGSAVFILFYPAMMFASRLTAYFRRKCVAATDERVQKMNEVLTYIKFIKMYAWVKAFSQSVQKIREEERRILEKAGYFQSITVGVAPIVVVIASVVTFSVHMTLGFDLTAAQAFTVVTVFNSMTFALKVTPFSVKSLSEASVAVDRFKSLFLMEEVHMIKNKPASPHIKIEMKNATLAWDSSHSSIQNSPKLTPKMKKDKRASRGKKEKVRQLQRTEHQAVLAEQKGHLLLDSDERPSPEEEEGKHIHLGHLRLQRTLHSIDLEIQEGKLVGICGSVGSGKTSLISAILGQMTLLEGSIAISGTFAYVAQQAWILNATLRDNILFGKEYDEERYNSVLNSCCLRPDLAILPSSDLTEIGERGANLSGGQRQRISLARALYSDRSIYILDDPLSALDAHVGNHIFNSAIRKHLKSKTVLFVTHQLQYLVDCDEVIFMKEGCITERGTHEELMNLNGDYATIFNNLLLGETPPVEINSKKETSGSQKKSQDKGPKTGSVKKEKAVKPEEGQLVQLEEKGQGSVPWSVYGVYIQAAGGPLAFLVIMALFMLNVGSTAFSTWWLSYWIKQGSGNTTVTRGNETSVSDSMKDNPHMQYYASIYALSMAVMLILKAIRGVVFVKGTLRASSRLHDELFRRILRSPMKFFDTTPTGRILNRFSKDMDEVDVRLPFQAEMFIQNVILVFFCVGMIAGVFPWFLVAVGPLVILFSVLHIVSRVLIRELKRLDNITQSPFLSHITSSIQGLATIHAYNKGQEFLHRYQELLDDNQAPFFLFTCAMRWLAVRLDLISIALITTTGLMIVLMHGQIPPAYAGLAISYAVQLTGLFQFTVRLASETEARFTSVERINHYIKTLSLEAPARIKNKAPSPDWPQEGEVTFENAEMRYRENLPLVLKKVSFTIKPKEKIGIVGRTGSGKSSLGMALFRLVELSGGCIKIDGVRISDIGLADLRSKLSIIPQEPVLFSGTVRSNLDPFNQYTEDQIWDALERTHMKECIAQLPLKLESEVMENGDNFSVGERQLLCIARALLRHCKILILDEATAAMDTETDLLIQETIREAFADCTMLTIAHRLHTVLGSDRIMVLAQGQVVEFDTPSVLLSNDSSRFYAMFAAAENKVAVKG

O=c1[nH]cc(F)c(=O)[nH]1 [5-fluorouracil]
intracellular drug concentration on reducing endogenous MRP5, in words (MRP5 [1]): notably increase the intracellular concentrations

Nc1ncnc2c1ncn2CCOCP(=O)(O)O [9-(2-phosphonomethoxyethyl) adenine]
transport by hMRP5, in words (hMRP5; antiviral monophosphate nucleotide analog, ref [18]): leading to antiviral multidrug resistance

COc1cccc2c1C(=O)c1c(O)c3c(c(O)c1C2=O)C[C@@](O)(C(=O)CO)C[C@@H]3O[C@H]1C[C@H](N)[C@H](O)[C@H](C)O1 [Doxorubicin, doxorubicin]
Doxorubicin concentration in oocyte extract, GFP-hMRP5 (GFP-hMRP5; replicate 1): 323.646 nM
Doxorubicin concentration in oocyte extract, GFP-hMRP5 (GFP-hMRP5; replicate 2): 292.08 nM
Doxorubicin concentration in oocyte extract, GFP-hMRP5 (GFP-hMRP5; replicate 3): 493.92 nM
Doxorubicin concentration in oocyte extract, GFP-hMRP5 (GFP-hMRP5; replicate 4): 266.323 nM
efflux by hMRP5 / contribution to drug resistance, in words (hMRP5): directly contribute to cancer drug resistance through the efflux
Kd (hMRP5-Δ1-94): 53.5 ± 22.9 µM

CN(C)C(=O)CCSC(SCCC(=O)O)c1cccc(/C=C/c2ccc3ccc(Cl)cc3n2)c1 (stereo not shown) [MK-571]
inhibition of MRP5 transport activity, in words (MRP5 [2]): reported to inhibit the transport activity of MRP5

CCCCC[C@H](O)/C=C/[C@H]1[C@H](O)CC(=O)[C@@H]1CCCCCCC(=O)O [PGE1, prostaglandin E1]
Kd (hMRP4): 3.73 ± 0.66 µM
binding affinity to hMRP4, in words (hMRP4; MST, three independent measurements): hMRP4 could capture prostaglandin E1 (PGE1)

COc1cc2c(cc1OC)-c1c/c(=N\c3c(C)cc(C)cc3C)n(C)c(=O)n1CC2 [Trequinsin, trequinsin]
inhibition of MRP5 transport activity, in words (MRP5 [2]): reported to inhibit the transport activity of MRP5
Kd (hMRP5-Δ1-94; digitonin-purified hMRP5-Δ1-94-8xHis, HEPES buffer, RED-tris-NTA 2nd Generation dye, 15 min at room temperature, 3% LED/excitation power, medium MST power, mean ± SEM of three independent measurements, read-out: binding affinity (MST), KD value): 42.4 ± 17.5 µM

Nc1nc2c(ncn2[C@@H]2O[C@@H]3COP(=O)(O)O[C@H]3[C@H]2O)c(=O)[nH]1 [cGMP, cyclic GMP]
binding affinity to hMRP5, in words (hMRP5-Δ1-94): relatively low binding affinity

N.N.[Cl][Pt][Cl] [cisplatin]
efflux by hMRP5 / contribution to drug resistance, in words (hMRP5): directly contribute to cancer drug resistance through the efflux

CN(Cc1cnc2nc(N)nc(N)c2n1)c1ccc(C(=O)N[C@@H](CCC(=O)O)C(=O)O)cc1 [methotrexate]
efflux by hMRP5 / contribution to drug resistance, in words (hMRP5): directly contribute to cancer drug resistance through the efflux

Nc1nc2[nH]cc(CCc3ccc(C(=O)N[C@@H](CCC(=O)O)C(=O)O)cc3)c2c(=O)[nH]1 [pemetrexed]
intracellular drug concentration on reducing endogenous MRP5, in words (MRP5 [1]): notably increase the intracellular concentrations

CCCN(CCC)S(=O)(=O)c1ccc(C(=O)O)cc1 [probenecid]
inhibition of MRP5 transport activity, in words (MRP5 [2]): reported to inhibit the transport activity of MRP5

CC(=O)[C@H]1CC[C@H]2[C@@H]3CCC4=CC(=O)CC[C@]4(C)[C@H]3CC[C@]12C [progesterone]
binding affinity to hMRP5, in words (hMRP5-Δ1-94): relatively low binding affinity

CCCc1nn(C)c2c(=O)[nH]c(-c3cc(S(=O)(=O)N4CCN(C)CC4)ccc3OCC)nc12 [sildenafil]
inhibition of MRP5 transport activity, in words (MRP5 [2]): reported to inhibit the transport activity of MRP5

C[C@]12CC[C@H]3[C@@H](CCC4=CC(=O)CC[C@@]43C)[C@@H]1CC[C@@H]2O [testosterone]
binding affinity to hMRP5, in words (hMRP5-Δ1-94): relatively low binding affinity

CCCOc1ccccc1-c1nc2nn[nH]c2c(=O)[nH]1 [zaprinast]
inhibition of MRP5 transport activity, in words (MRP5 [2]): reported to inhibit the transport activity of MRP5
